ChEMBL document CHEMBL3868640, “1,2,4-Triazolidine-3-thiones as Narrow Spectrum Antibiotics against Multidrug-Resistant Acinetobacter baumannii” (ACS Med Chem Lett, 2017)
Values after ≈ are worked out from the molar mass of the structure shown.

What was measured:
[1] = test system: Acinetobacter baumannii; assay: Antimicrobial activity against multi drug-resistant Acinetobacter baumannii AB4957 after 16 hrs by microbroth dilution method; assay type: functional; conditions: AB4957, 16 h
[2] = test system: Acinetobacter baumannii; assay: Antimicrobial activity against extensively drug-resistant Acinetobacter baumannii AB5075 after 16 hrs by microbroth dilution method; assay type: functional; conditions: AB5075, 16 h
[3] = test system: Acinetobacter baumannii; assay: Antimicrobial activity against multi drug-resistant Acinetobacter baumannii AB3806 after 16 hrs by microbroth dilution method; assay type: functional; conditions: AB3806, 16 h
[4] = test system: Acinetobacter baumannii; assay: Antimicrobial activity against multi drug-resistant Acinetobacter baumannii AB3638 after 16 hrs by microbroth dilution method; assay type: functional; conditions: AB3638, 16 h
[5] = test system: Acinetobacter baumannii; assay: Antimicrobial activity against multi drug-resistant Acinetobacter baumannii AB3785 after 16 hrs by microbroth dilution method; assay type: functional; conditions: AB3785, 16 h
[6] = test system: Acinetobacter baumannii; assay: Antimicrobial activity against multi drug-resistant Acinetobacter baumannii BAA1605 after 16 hrs by microbroth dilution method; assay type: functional; conditions: BAA1605, 16 h
[7] = test system: Acinetobacter baumannii; assay: Antimicrobial activity against multi drug-resistant Acinetobacter baumannii AB4878 after 16 hrs by microbroth dilution method; assay type: functional; conditions: AB4878, 16 h
[8] = Hemolytic activity against sheep RBC up to 512 ug/ml after 1 hr by UV spectrometric analysis; assay type: ADME, cell-based, Ovis aries; conditions: erythrocyte
[9] = test system: Acinetobacter baumannii; assay: Antibacterial activity against Acinetobacter baumannii AB5075 infected in Galleria mellonella assessed as worm survival at 50 mg/kg after 3 days relative to control; assay type: functional; conditions: AB5075, 72 h
[10] = test system: Acinetobacter baumannii; assay: Bactericidal activity against extensively drug-resistant Acinetobacter baumannii AB5075 assessed as log reduction in bacterial count at 4 to 16 ug/ml measured up to 24 hrs by time kill assay; assay type: functional
[11] = test system: Acinetobacter baumannii; assay: Antibacterial activity against Acinetobacter baumannii AB5075 infected in Galleria mellonella assessed as worm survival at 100 mg/kg after 3 days relative to control; assay type: functional; conditions: AB5075, 72 h
[12] = test system: Staphylococcus aureus; assay: Antimicrobial activity against methicillin-resistant Staphylococcus aureus after 16 hrs by microbroth dilution method; assay type: functional
[13] = Half life in cation adjusted Mueller-Hinton broth by liquid chromatography; assay type: physicochemical
[14] = test system: Acinetobacter baumannii; assay: Antibacterial activity against Acinetobacter baumannii AB5075 infected in Galleria mellonella assessed as protection against bacterial infection by measuring survival of host at 100 mg/kg after 6 days relative to control; assay type: functional; conditions: AB5075, 144 h
[15] = test system: Escherichia coli; assay: Antimicrobial activity against Escherichia coli after 16 hrs by microbroth dilution method; assay type: functional
[16] = test system: Pseudomonas aeruginosa; assay: Antimicrobial activity against Pseudomonas aeruginosa after 16 hrs by microbroth dilution method; assay type: functional
[17] = Drug degradation in cation adjusted Mueller-Hinton broth after 16 hrs by liquid chromatography; assay type: physicochemical
[18] = test system: Acinetobacter baumannii; assay: Antibacterial activity against Acinetobacter baumannii AB5075 infected in Galleria mellonella assessed as protection against bacterial infection by measuring survival of host at 50 mg/kg after 6 days relative to control; assay type: functional; conditions: AB5075, 144 h
[19] = test system: Klebsiella pneumoniae; assay: Antimicrobial activity against Klebsiella pneumoniae after 16 hrs by microbroth dilution method; assay type: functional
[20] = test system: Acinetobacter baumannii; assay: Antimicrobial activity against extensively drug-resistant Acinetobacter baumannii AB5075 in 0.02% linoleic acid supplemented media after 16 hrs by microbroth dilution method; assay type: functional; conditions: AB5075, 16 h

| SMILES | MIC [2] [mg/L] | other results |
| --- | --- | --- |
| CCC1(CC)NC(=S)N(c2ccc(Cl)cc2)N1 | 2 (≈ 7.41 µM) | MIC [1]: 4 mg/L (≈ 14.8 µM); MIC [3]: 4 mg/L (≈ 14.8 µM); MIC [4]: 4 mg/L (≈ 14.8 µM); MIC [5]: 4 mg/L (≈ 14.8 µM); MIC [6]: 4 mg/L (≈ 14.8 µM); MIC [7]: 4 mg/L (≈ 14.8 µM) |
| S=C1NC2(CCCC2)NN1c1ccccc1 | 8 (≈ 34.3 µM) |  |
| CCC1(CC)NC(=S)N(c2ccccc2Cl)N1 | 128 (≈ 474 µM) |  |
| CCC1(CC)NC(=S)N(c2ccc(Br)cc2)N1 | 4 (≈ 12.7 µM) |  |
| CCC1(CC)NC(=S)N(c2ccc(C#N)cc2)N1 | > 128 |  |
| CC1(c2ccccc2)NC(=S)N(c2ccccc2)N1 (stereo unspecified) | > 128 |  |
| CCCC1(CC)NC(=S)N(c2ccccc2)N1 (stereo unspecified) | 32 (≈ 128 µM) |  |
| CCCC1(C)NC(=S)N(c2ccccc2)N1 (stereo unspecified) | 16 (≈ 68 µM) |  |
| CCC1(CC)NC(=S)N(c2ccc(Cl)c(Cl)c2)N1 | > 128 |  |
| CC1NC(=S)N(c2ccccc2)N1 (stereo unspecified) | > 128 |  |
| CCC1(CC)NC(=S)N(c2ccccc2)N1 | 8 (≈ 34 µM) |  |
| CCC1(CC)NC(=S)N(c2cccc(F)c2)N1 | 8 (≈ 31.6 µM) |  |
| CCC1(CC)NC(=S)N(c2ccc(C(F)(F)F)cc2)N1 | > 128 |  |
| CN1N(c2ccc(Cl)cc2)C(=S)NC1(C)C | > 128 |  |
| CCC1(C(C)C)NC(=S)N(c2ccccc2)N1 (stereo unspecified) | 32 (≈ 128 µM) |  |
| CC1(C)NNC(=S)N1c1ccc(Cl)cc1 | > 128 |  |
| CCC1NC(=S)N(c2ccccc2)N1 (stereo unspecified) | > 128 |  |
| CCCCN1N(c2ccc(Cl)cc2)C(=S)NC1(C)C | > 128 |  |

| SMILES | MIC [2] [mg/L] | other results |
| --- | --- | --- |
| CC1(C)N=C(SCc2ccccc2)N(c2ccc(Cl)cc2)N1 | > 128 |  |
| S=C1NC(c2ccccc2)NN1c1ccccc1 (stereo unspecified) | 64 (≈ 251 µM) |  |
| CCC1(CC)NC(=S)N(c2cccc(Cl)c2)N1 | 8 (≈ 29.7 µM) |  |
| CCC1(CC)NC(=S)N(c2ccc(F)cc2)N1 | 4 (≈ 15.8 µM) |  |
| CCC1(CC)NC(=S)N(c2ccc(F)c(Cl)c2)N1 | 32 (≈ 111 µM) |  |
| CCC1(CC)NC(=S)N(c2ccc([N+](=O)[O-])cc2)N1 | > 128 |  |
| CCC1(CC)NC(=S)N(c2ccc(I)cc2)N1 | 8 (≈ 22.1 µM) |  |
| CCC1(C)NC(=S)N(c2ccccc2)N1 (stereo unspecified) | 8 (≈ 36.1 µM) | MIC [1]: 8 mg/L (≈ 36.1 µM); MIC [3]: 4 mg/L (≈ 18.1 µM); MIC [4]: 4 mg/L (≈ 18.1 µM); MIC [5]: 4 mg/L (≈ 18.1 µM); MIC [6]: 8 mg/L (≈ 36.1 µM); MIC [7]: 8 mg/L (≈ 36.1 µM) |
| CCC1(CC)NC(=S)N(c2ccccc2F)N1 | 32 (≈ 126 µM) |  |
| CC(C)C1(C)NC(=S)N(c2ccccc2)N1 (stereo unspecified) | 8 (≈ 34 µM) |  |
| CCCC1(CCC)NC(=S)N(c2ccccc2)N1 | 32 (≈ 121 µM) |  |
| CC1(C)NC(=S)N(c2ccccc2)N1 | 8 (≈ 38.6 µM) |  |
| CCCC1NC(=S)N(c2ccccc2)N1 (stereo unspecified) | 64 (≈ 289 µM) |  |
| CC1(C)NC(=S)N(c2ccc(Cl)cc2)N1 |  | MIC [1]: 2 mg/L (≈ 8.27 µM); Activity [8]: Non-Toxic; survival at 50 mg/kg [9]: 42.5%; log reduction [10]: > 6 log10 CFU/mL; survival at 100 mg/kg [11]: 45%; MIC [3]: 1 mg/L (≈ 4.14 µM); MIC [12]: ≥ 128 mg/L; MIC [4]: 1 mg/L (≈ 4.14 µM); half-life [13]: 2.5 h; MIC [5]: 1 mg/L (≈ 4.14 µM); survival at 100 mg/kg [14]: 32%; MIC [15]: ≥ 128 mg/L; MIC [16]: ≥ 128 mg/L; MIC [6]: 2 mg/L (≈ 8.27 µM); Stability [17]: Unstable; MIC [7]: 2 mg/L (≈ 8.27 µM); survival at 50 mg/kg [18]: 22%; MIC [19]: ≥ 128 mg/L; MIC [20]: > 128 mg/L |
| CSC1=NC(C)(C)NN1c1ccc(Cl)cc1 | > 128 |  |
| CCC1(CC)NC(=S)N(c2cc(F)cc(F)c2)N1 | > 128 |  |
| CCC1(CC)NC(=S)N(c2ccc(C(C)C)cc2)N1 | > 128 |  |
| SC1=NC2(CCCCC2)NN1c1ccccc1 | 8 (≈ 32.3 µM) |  |
